Experiment: Solubility of TFESK in water and in aqueous K2SO3 solution
Assay type: physicochemical
Source text: Therefore, TFESK was selectively crystallized from sulfite solutions.

In the case of `O=S(=O)([O-])C(F)(F)C(F)F.[K+]` [TFESK, Potassium 1,1,2,2-tetrafluoroethanesulfonate], the “solubility in 2M K2SO3 solution” value (2M K2SO3 solution) is reported as 1-2 % by weight and the solubility in water (water at 0° C.) is reported as 25 % by weight.
